Patent US20080226596A1, “Therapeutic compositions and methods useful in treating hepatitis” (priority 2006, published 2008)
“Also recorded” adds a separate entry of the source.

Tests used:
Baf3 cells = experiment: Cellular protein tyrosine phosphorylation in Baf3 cells (Western blot); type: cell-based, murine; conditions: IL-3-deprived Baf3 cells
Procedure: (§1) For induction of cellular protein phosphorylation by sodium stibogluconate or pervanadate, Baf3 cells were incubated in 0.1% FCS-RPMI 1640 medium at 37° C. for 16 hours. The cells were then washed twice in RPMI 1640 medium and incubated with sodium stibogluconate or pervanandate (0.1 mM) for various times prior to termination by lysing cells in cold lysis buffer (50 mM Tris, pH 7.4; 150 mM NaCl; 0.2 mM Na3VO4; 20 mm NaF; 1% Nonidet P-40; 2 mM PMSF; 20 µg/ml of Aprotinin and 1 mM of sodium molybdic acid). To determine the effect of sodium stibogluconate or potassium antimonyl tartrate on IL-3-induced Jak/Stat phosphorylation, Baf3 cells were deprived of the growth factor for 16 hours in 0.1% FCS RPMI 1640 medium and then incubated with or without sodium stibogluconate or potassium antimonyl tartrate for 10 minutes. IL-3 was next added to the cell suspension and incubated for various times. The Cells were then harvested and lysed in cold lysis buffer at 4° C. for 45 minutes. Total cell lysates (TCL) were separated in SDS-PAGE gels, blotted onto nitrocellulose membrane (Schleicher & Schuell), probed with specific antibodies and detected using an enhanced chemiluminescence kit (ECL, Amersham, Arlington Heights, Ill.).

DU145 cells = experiment: DU145 prostate cancer cell growth, MTT assay; type: cell-based, human; conditions: single agent, 50-100 μg/ml, day 6
Procedure: (§2) For cell proliferation assays, cells were grown in 10% FCS culture medium containing various amounts of IFNs and/or sodium stibogluconate in 96 well plates and cultured at 37° C. for 3 or 6 days as indicated. The numbers of viable cells in proliferation assays were determined by MTT assays as described in Phatak et al., J. Immunol. 167, 3391 (2001).
(§3) NIH3T3 (Yi, et al., Blood 85, 87 (1995)), WM9 (Forsberg, et al., Proc. Nat. Acad Sci. USA 90, 393 (1993)), DU145 (Mickey, et al., Cancer Res. 37, 4049 (1977)), LoVo (Drewinko, et al., Cancer Res. 36, 467 (1976)), HEY (Buick, et al., Cancer Res. 45, 3668 (1985)), U251 (Yoshida, et al., Cancer 50, 410 (1982)), A549 (Giard, et al., J. Natl. Cancer Inst. 51, 1417 (1973)) and SK-N-SH (Helson, et al., Cancer Res. 35, 2594 (1975)) cell lines have been described and were cultured in RPMI 1640 supplemented with 10% fetal calf serum (FCS). For measurement of sodium stibogluconate effects on cell growth in vitro, cells were cultured in the absence (−) or presence (+) of various amounts of sodium stibogluconate for 6 days with viable cells quantified by MTT assays (Mosmann, J. Immunol. Methods 65, 55 (1983)). Percentages of growth inhibition by sodium stibogluconate were calculated (.+−.x

NB4 cells = experiment: NB4 cell cycle analysis; type: cell-based, human; conditions: 3 days; sodium stibogluconate 250 μg/ml, ATRA 1 μM
Procedure: The cell cycle was analyzed by flow cytometry after 3 days of culture of NB4 cells in the absence or presence of sodium stibogluconate (250 µg/ml) or ATRA (1 μM). Briefly, the cells were fixed in cold ethanol and incubated for 30 minutes at 4° C. in the dark with a solution of 50 […], 1 mg/ml RNase and 0.1% NP-40. Analysis was performed immediately after staining using the CELLFIT program (Becton Dickinson, Mountain View, Calif.).

[1] = tested on: Jak2/Stat5 tyrosine phosphorylation; experiment: IL-3-induced Jak2/Stat5 tyrosine phosphorylation in Baf3 cells; type: cell-based, murine
Procedure: as §1

WM9 transfectants = experiment: Growth of WM9 transfectants, MTT assay; type: cell-based, human; conditions: 50 or 100 μg/ml, 6 days
Procedure: as §3
The effects of sodium stibogluconate on intracellular PTPases were assessed using NIH3T3 or WM9 transfectants. NIH3T3 or WM9 cells were transfected with the pBabepuro vector (V) or pBabepuro expression constructs of Flag-tagged PRLs using Lipofectamine (BRL) following the manufacturer's procedures. […]

MDA231 cells = experiment: MDA231 breast cancer cell growth, MTT assay; type: cell-based, human; conditions: single agent, 50-100 μg/ml, day 6
Procedure: as §2

WM35 cells = experiment: WM35 melanoma cell growth; type: cell-based, human
Procedure: as §2

[2] = tested on: Renca tumor-infiltrating immune cells; experiment: Renca tumor-infiltrating immune cells, immunohistochemistry; parameters: species or system Balb/c mice; conditions: mouse, in vivo
Procedure: Major internal organs and Renca tumors harvested from mice were fixed in 10% formalin or snap frozen in liquid nitrogen. H & E-stained tissue sections of the fixed samples were prepared and evaluated by microscopy as described previously (Yi, T., M. K. Pathak, D. J. Lindner, M. E. Ketterer, C. Farver, and E. C. Borden. 2002. Anticancer activity of sodium stibogluconate in synergy with IFNs. J Immunol 169:5978). Preparation of frozen tissue sections and immunohistochemistry were performed following established procedures (Joliat, M. J., P. A. Lang, B. L. Lyons, L. Burzenski, M. A. Lynes, T. Yi, J. P. Sundberg, and L. D. Shultz. 2002. Absence of CD5 dramatically reduces progression of pulmonary inflammatory lesions in SHP-1 protein-tyrosine phosphatase-deficient ‘viable motheaten’ mice. J Autoimmun 18:105). The antibodies used for immunohistochemistry were anti-CD4 (rat mAb, clone GK1.5, BD Biosciences, Franklin Lakes, N.J.), anti-CD8 (rat mAb, clone 53-6.7.5, BD Biosciences, Franklin Lakes, N.J.), anti-F4/80 (rat mAb, clone A3-1, Serotec, Oxford, UK) and anti-Asialo GM1 (rabbit polyclonal, Cedarlane, Hornby, Canada). […] Tissue sections of 2 mice/group were evaluated. The number of immune cells was semi-quantified based on the following scheme: […], 0-1 positive cells/40×field; +, 2-5 positive cells/40×field; ++, 6-10 positive cells/40×field, etc.

human peripheral blood = experiment: ELISPOT of cytokine-positive cells in human peripheral blood treated in vitro; type: cell-based; conditions: comparable conditions
HEY cells = experiment: HEY ovarian cancer cell growth, MTT assay; type: cell-based, human; conditions: 100 μg/ml, day 6
Procedure: as §3

Compound: O.O.O.O.O.O.O.O.O.O=C([O-])[C@@H]1[O][Sb]2([O-])([O][Sb]34([OH])[O][C@H]([C@H](O)CO)[C@H]([O]3)[C@H](C(=O)[O-])[O]4)[O][C@H]([C@H](O)CO)[C@@H]1[O]2.[Na+].[Na+].[Na+] [sodium stibogluconate]
- cellular protein tyrosine phosphorylation (Baf3 cells): induced protein tyrosine phosphorylation
- killing of DU145 cells (DU145 cells): killed all cells; also recorded: complete or near complete killing; also recorded: near-complete cell killing
- NB4 cell cycle effect (NB4 cells): significant increase of cells at S phase
- phosphotyrosine levels of Jak2 and Stat5 relative to cells without drug ([1]; IL-3 stimulated, drug 10 minutes before, densitometry): about twice
- Jak2/Stat5 tyrosine phosphorylation by drug alone ([1]; no IL-3, 37 C 16 hours): failed to induce Jak2/Stat5 tyrosine phosphorylation
- growth of R86 cells (WM9 transfectants): only modest growth inhibition
- killing of MDA231 cells (MDA231 cells): killed all cells; also recorded: complete or near complete killing
- effect on WM35 cells (WM35 cells): minimally affected
- numbers of tumor-infiltrating T cells or NK cells [2]: little effect
- induction of IL-5+ cells (human peripheral blood): not induced
- killing of HEY cells (HEY cells): near-complete cell killing
